Reference: patent US20240238295A1, “METHOD FOR MODULATING NEUROPATHIES” (priority 2021, published 2024)
“And” between values parts separate entries of the source, which are not always exact repeats. Equal entries are not always repeated.

How the values were obtained:
Format in all cases: in vivo, rhesus monkey (Macaca mulatta)
[1] = test system: retinal ganglion cells (RGC); experiment: Brn3a immunohistochemistry retinal ganglion cell count, retinal ischemia/reperfusion (I/R) model; conditions: for average loss of RGC cells: I/R eyes vs contralateral OS eye, Day 63 after retinal I/R, oral 63 days; for protection on retinal ganglion cells: retinal I/R, 63 days of treatment; as to average loss of RGC cells: test concentration or dose not given here
[2] = test system: retinal ischemia/reperfusion (I/R) rhesus monkey model; experiment: OCT mean thickness of 9-room retinal EDTRS area, retinal I/R model; conditions: change vs before modeling; also: test concentration or dose not given here
[3] = test system: retinal ischemia/reperfusion (I/R) rhesus monkey model; experiment: OCT Global mean thickness of retinal nerve fiber layer (RNFL), retinal I/R model; conditions: change vs before modeling; also: test concentration or dose not given here
[4] = test system: rhesus monkeys with spontaneous diabetic peripheral neuropathy; experiment: Nerve electromyogram: sensory nerve conduction velocity (SCV) of abnormal nerves, spontaneous DPN model; conditions: for Variation value, sensory nerve conduction velocity, Mean ± SD / Administration D58, sensory nerve conduction velocity, Mean ± SD / Baseline value, sensory nerve conduction velocity, Mean ± SD: group mean over all abnormal nerves; for Variation value, sensory nerve conduction velocity, Mean ± SD / Variation value, sensory nerve conduction velocity: D58 minus baseline; for Administration D58, sensory nerve conduction velocity, Mean ± SD / Administration D58, sensory nerve conduction velocity: Day 58 of administration; for Baseline value, sensory nerve conduction velocity, Mean ± SD / Baseline value, sensory nerve conduction velocity: before administration; for Variation value, sensory nerve conduction velocity / Administration D58, sensory nerve conduction velocity / Baseline value, sensory nerve conduction velocity: individual animal; as to Administration D58, sensory nerve conduction velocity, Mean ± SD: test concentration or dose not given here; as to Administration D58, sensory nerve conduction velocity: test concentration or dose not given here; as to Variation value, sensory nerve conduction velocity, Mean ± SD: test concentration or dose not given here; as to Variation value, sensory nerve conduction velocity: test concentration or dose not given here
[5] = test system: sural nerve of rhesus monkeys with spontaneous diabetic peripheral neuropathy; experiment: Nerve electromyogram: sural sensory nerve conduction velocity, spontaneous DPN model; conditions: for Change value, sural sensory nerve conduction velocity, Mean ± SD / D58 of administration, sural sensory nerve conduction velocity, Mean ± SD / Baseline value, sural sensory nerve conduction velocity, Mean ± SD: group mean over abnormal sural nerves; for Change value, sural sensory nerve conduction velocity, Mean ± SD / Change value, sural sensory nerve conduction velocity: D58 minus baseline; for D58 of administration, sural sensory nerve conduction velocity, Mean ± SD / D58 of administration, sural sensory nerve conduction velocity: Day 58 of administration; for Baseline value, sural sensory nerve conduction velocity, Mean ± SD: before administration; for Change value, sural sensory nerve conduction velocity / D58 of administration, sural sensory nerve conduction velocity: individual animal; as to Change value, sural sensory nerve conduction velocity, Mean ± SD: test concentration or dose not given here; as to Change value, sural sensory nerve conduction velocity: test concentration or dose not given here; as to D58 of administration, sural sensory nerve conduction velocity, Mean ± SD: test concentration or dose not given here; as to D58 of administration, sural sensory nerve conduction velocity: test concentration or dose not given here
[6] = OS (non-ischemic contralateral eye), Day 7
[7] = OS (non-ischemic contralateral eye), Day 21
[8] = OS (non-ischemic contralateral eye), Day 35
[9] = OS (non-ischemic contralateral eye), Day 63
[10] = spontaneous DPN, 58 days, P>0.05 vs placebo group

**Q.** Which results are given for `COc1cc2nc(N3CCN(C(=O)C4COc5ccccc5O4)CC3)nc(N)c2cc1OC` (racemic) [DOX, (RS)-2-[4-(2,3-Dihydro-1,4-benzodioxine-2-carbonyl)piperazin-1-yl]-6,7-dimethoxyquinazolin-4-amine]?
**A.** average loss of RGC cells [1]: 63.9±14.1%; protection on retinal ganglion cells [1]: weak protection; Δ mean thickness of the 9-room retinal EDTRS area ([2]; OD (IR injury), Day 7): −26 ± 0 μm; Δ mean thickness of the 9-room retinal EDTRS area ([2]; OD (IR injury), Day 21): −48 ± 7 μm; Δ mean thickness of the 9-room retinal EDTRS area ([2]; OD (IR injury), Day 35): −54 ± 10 μm; Δ mean thickness of the 9-room retinal EDTRS area ([2]; OD (IR injury), Day 63): −58 ± 9 μm; Δ mean thickness of the 9-room retinal EDTRS area [2, 6]: −5 ± 4 μm; Δ mean thickness of the 9-room retinal EDTRS area [2, 7]: −3 ± 4 μm; Δ mean thickness of the 9-room retinal EDTRS area [2, 8]: −3 ± 3 μm; Δ mean thickness of the 9-room retinal EDTRS area [2, 9]: −3 ± 5 μm; Δ Global mean thickness of retinal nerve fiber layer (RNFL) ([3]; OD (I/R injury), Day 35): −14 ± 4 μm; Δ Global mean thickness of retinal nerve fiber layer (RNFL) ([3]; OD (I/R injury), Day 63): −21 ± 7 μm; Δ Global mean thickness of retinal nerve fiber layer (RNFL) [3, 8]: 1 ± 2 μm; Δ Global mean thickness of retinal nerve fiber layer (RNFL) [3, 9]: 1 ± 1 μm

**Q.** Which results are given for `CC(/C=C1\SC(=S)N(CC(=O)O)C1=O)=C\c1ccccc1` [Epalrestat, epalrestat]?
**A.** Variation value, sensory nerve conduction velocity, Mean ± SD [4]: 4.2 ± 4.0 m/s; Administration D58, sensory nerve conduction velocity, Mean ± SD [4]: 43.6 ± 7.3 m/s; Baseline value, sensory nerve conduction velocity, Mean ± SD [4]: 38.8 ± 4.7 m/s; Variation value, sensory nerve conduction velocity ([4]; left median nerve (abnormal)): 1.5 m/s and 8.6 m/s; Administration D58, sensory nerve conduction velocity ([4]; left median nerve (abnormal)): 40 m/s and 51.2 m/s; Baseline value, sensory nerve conduction velocity ([4]; left median nerve (abnormal)): 38.5 m/s and 42.6 m/s; Variation value, sensory nerve conduction velocity ([4]; left sural nerve (abnormal)): −1.1 m/s and 5.6 m/s and 6.1 m/s; Baseline value, sensory nerve conduction velocity ([4]; left sural nerve (abnormal)): 40.4 m/s and 39.6 m/s and 35.3 m/s; Variation value, sensory nerve conduction velocity ([4]; left ulnar nerve (abnormal)): 8.3 m/s; Administration D58, sensory nerve conduction velocity ([4]; left ulnar nerve (abnormal)): 50.7 m/s; Baseline value, sensory nerve conduction velocity ([4]; left ulnar nerve (abnormal)): 42.4 m/s; Variation value, sensory nerve conduction velocity ([4]; right median nerve (abnormal)): −0.7 m/s and 4.8 m/s; Administration D58, sensory nerve conduction velocity ([4]; right median nerve (abnormal)): 25.1 m/s and 48.2 m/s; Baseline value, sensory nerve conduction velocity ([4]; right median nerve (abnormal)): 25.8 m/s and 43.4 m/s; Variation value, sensory nerve conduction velocity ([4]; right sural nerve (abnormal)): 0.4 m/s and 2.8 m/s and −0.6 m/s and 9.3 m/s; Baseline value, sensory nerve conduction velocity ([4]; right sural nerve (abnormal)): 40.9 m/s and 36.8 m/s and 44.4 m/s and 34.6 m/s; Variation value, sensory nerve conduction velocity ([4]; right ulnar nerve (abnormal)): 9.2 m/s; Administration D58, sensory nerve conduction velocity ([4]; right ulnar nerve (abnormal)): 48.4 m/s; Baseline value, sensory nerve conduction velocity ([4]; right ulnar nerve (abnormal)): 39.2 m/s; mean increase in SCV of nerves with abnormal conduction velocities vs baseline ([4]; spontaneous DPN, administered for 58 days): 4.2±4.0 m/s; Change value, sural sensory nerve conduction velocity, Mean ± SD [5]: 3.2 ± 3.9 m/s; D58 of administration, sural sensory nerve conduction velocity, Mean ± SD [5]: 42.1 ± 2.1 m/s; Baseline value, sural sensory nerve conduction velocity, Mean ± SD [5]: 38.9 ± 3.2 m/s; Change value, sural sensory nerve conduction velocity ([5]; left sural nerve (abnormal)): 6.1 m/s and −1.1 m/s and 5.6 m/s; D58 of administration, sural sensory nerve conduction velocity ([5]; left sural nerve (abnormal)): 41.4 m/s and 39.3 m/s and 45.2 m/s; Change value, sural sensory nerve conduction velocity ([5]; right sural nerve (abnormal)): 9.3 m/s and 0.4 m/s and 2.8 m/s and −0.6 m/s; D58 of administration, sural sensory nerve conduction velocity ([5]; right sural nerve (abnormal)): 43.9 m/s and 41.3 m/s and 39.6 m/s and 43.8 m/s; average increase in sensory nerve conduction velocity (SCV) of abnormal sural nerves vs baseline ([5]; spontaneous DPN, 58 days of administration): 3.2±3.9 m/s; nerves determined to be effectively improved in conduction velocity (of abnormal sural nerves) ([5]; spontaneous DPN, 58 days, effective = return to normal or increase by 2-5 m/s or more): 4/7

**Q.** With `CCCN[C@H]1CCc2nc(N)sc2C1` [PMP, (S)—N6-propyl-4,5,6,7-tetrahydro-1,3-benzothiazole-2,6-diamine] as the compound, how does the “average loss of RGC cells” value [1] read?
**A.** 60.0%

**Q.** And the “protection on retinal ganglion cells” value [1]?
**A.** weak protection

**Q.** And the “Δ mean thickness of the 9-room retinal EDTRS area” value (“Δ mean thickness” below) ([2]; OD (IR injury), Day 7)?
**A.** −50 ± 14 μm

**Q.** What about the “Δ mean thickness” value ([2]; OD (IR injury), Day 21) of the same compound?
**A.** −79 ± 15 μm

**Q.** What about the “Δ mean thickness” value ([2]; OD (IR injury), Day 35) of the same compound?
**A.** −85 ± 14 μm

**Q.** And the “Δ mean thickness” value ([2]; OD (IR injury), Day 63)?
**A.** −88 ± 18 μm

**Q.** And the “Δ mean thickness” value [2, 6]?
**A.** −3 ± 5 μm

**Q.** And the “Δ mean thickness” value [2, 7]?
**A.** −6 ± 3 μm

**Q.** What about the “Δ mean thickness” value [2, 8] of the same compound?
**A.** −2 ± 4 μm

**Q.** What about the “Δ mean thickness” value [2, 9] of the same compound?
**A.** 3 ± 3 μm

**Q.** And the “Δ Global mean thickness of retinal nerve fiber layer (RNFL)” value (“Δ Global mean thickness” below) ([3]; OD (I/R injury), Day 35)?
**A.** −41 ± 8 μm

**Q.** And the “Δ Global mean thickness” value ([3]; OD (I/R injury), Day 63)?
**A.** −46 ± 3 μm

**Q.** And the “Δ Global mean thickness” value [3, 8]?
**A.** −2 ± 1 μm

**Q.** And the “Δ Global mean thickness” value [3, 9]?
**A.** 2 ± 1 μm

**Q.** What about the “Variation value, sensory nerve conduction velocity, Mean ± SD” value [4] of the same compound?
**A.** 0.4 ± 1.3 m/s

**Q.** What about the “Administration D58, sensory nerve conduction velocity, Mean ± SD” value [4] of the same compound?
**A.** 39.0 ± 5.1 m/s

**Q.** What about the “Baseline value, sensory nerve conduction velocity, Mean ± SD” value [4] of the same compound?
**A.** 38.6 ± 4.9 m/s

**Q.** What about the “Variation value, sensory nerve conduction velocity” value ([4]; left median nerve (abnormal)) of the same compound?
**A.** −1.9 m/s and 0.8 m/s

**Q.** What about the “Administration D58, sensory nerve conduction velocity” value ([4]; left median nerve (abnormal)) of the same compound?
**A.** 42.1 m/s and 40.0 m/s

**Q.** And the “Baseline value, sensory nerve conduction velocity” value ([4]; left median nerve (abnormal))?
**A.** 44.0 m/s and 39.2 m/s

**Q.** And the “Variation value, sensory nerve conduction velocity” value ([4]; left sural nerve (abnormal))?
**A.** −0.3 m/s and 1.9 m/s

**Q.** What about the “Baseline value, sensory nerve conduction velocity” value ([4]; left sural nerve (abnormal)) of the same compound?
**A.** 40.5 m/s and 38.5 m/s

**Q.** What about the “Variation value, sensory nerve conduction velocity” value ([4]; right median nerve (abnormal)) of the same compound?
**A.** −0.6 m/s

**Q.** And the “Administration D58, sensory nerve conduction velocity” value ([4]; right median nerve (abnormal))?
**A.** 25.6 m/s

**Q.** What about the “Baseline value, sensory nerve conduction velocity” value ([4]; right median nerve (abnormal)) of the same compound?
**A.** 26.2 m/s

**Q.** What about the “Variation value, sensory nerve conduction velocity” value ([4]; right sural nerve (abnormal)) of the same compound?
**A.** −0.4 m/s and 2.1 m/s and 1.4 m/s

**Q.** And the “Baseline value, sensory nerve conduction velocity” value ([4]; right sural nerve (abnormal))?
**A.** 40.0 m/s and 39.0 m/s and 41.2 m/s

**Q.** And the “improvement in abnormal sensory nerve conduction velocity compared with the placebo group” value [4, 10]?
**A.** no significant improvement

**Q.** And the “Change value, sural sensory nerve conduction velocity, Mean ± SD” value [5]?
**A.** 0.9 ± 1.1 m/s

**Q.** What about the “D58 of administration, sural sensory nerve conduction velocity, Mean ± SD” value [5] of the same compound?
**A.** 40.8 ± 1.0 m/s

**Q.** And the “Baseline value, sural sensory nerve conduction velocity, Mean ± SD” value [5]?
**A.** 39.8 ± 1.0 m/s

**Q.** What about the “Change value, sural sensory nerve conduction velocity” value ([5]; left sural nerve (abnormal)) of the same compound?
**A.** −0.3 m/s and 1.9 m/s

**Q.** And the “D58 of administration, sural sensory nerve conduction velocity” value ([5]; left sural nerve (abnormal))?
**A.** 40.2 m/s and 40.4 m/s

**Q.** What about the “Change value, sural sensory nerve conduction velocity” value ([5]; right sural nerve (abnormal)) of the same compound?
**A.** −0.4 m/s and 2.1 m/s and 1.4 m/s

**Q.** What about the “D58 of administration, sural sensory nerve conduction velocity” value ([5]; right sural nerve (abnormal)) of the same compound?
**A.** 39.6 m/s and 41.1 m/s and 42.6 m/s

**Q.** What about the “improvement in abnormal sural sensory nerve conduction velocity compared with the placebo group” value [5, 10] of the same compound?
**A.** no significant improvement
